Data reported in ChEMBL document CHEMBL5625232, “Development of selective class I protein arginine methyltransferase inhibitors through fragment-based drug design approach” (Eur J Med Chem, 2023).
Active and inactive are the calls of the source. No cut-off for these calls is given here.

Columns and labels:
[1] = molecular target: T1, Protein arginine N-methyltransferase 3 (Homo sapiens, UniProt O60678); test: Inhibition of PRMT3 (unknown origin)
Target sequence in this assay (O60678 whole entry): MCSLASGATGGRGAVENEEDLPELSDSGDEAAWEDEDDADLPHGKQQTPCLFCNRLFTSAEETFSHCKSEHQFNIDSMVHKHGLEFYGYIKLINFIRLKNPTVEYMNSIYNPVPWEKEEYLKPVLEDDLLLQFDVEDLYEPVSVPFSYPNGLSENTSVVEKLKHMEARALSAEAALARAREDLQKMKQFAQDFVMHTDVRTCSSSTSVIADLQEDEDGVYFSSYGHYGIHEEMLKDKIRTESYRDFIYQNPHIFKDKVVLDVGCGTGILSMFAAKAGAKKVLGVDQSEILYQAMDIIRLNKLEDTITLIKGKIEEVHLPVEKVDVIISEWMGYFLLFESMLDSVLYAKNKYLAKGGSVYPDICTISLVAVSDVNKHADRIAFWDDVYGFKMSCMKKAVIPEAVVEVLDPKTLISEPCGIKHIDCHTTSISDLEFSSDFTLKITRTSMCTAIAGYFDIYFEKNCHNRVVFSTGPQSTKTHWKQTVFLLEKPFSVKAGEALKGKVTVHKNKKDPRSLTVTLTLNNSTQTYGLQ

[2] = molecular target: T2, Histone-arginine methyltransferase CARM1 (Homo sapiens, UniProt Q86X55); test: Inhibition of PRMT4 (unknown origin)
T2 sequence (Q86X55 whole entry): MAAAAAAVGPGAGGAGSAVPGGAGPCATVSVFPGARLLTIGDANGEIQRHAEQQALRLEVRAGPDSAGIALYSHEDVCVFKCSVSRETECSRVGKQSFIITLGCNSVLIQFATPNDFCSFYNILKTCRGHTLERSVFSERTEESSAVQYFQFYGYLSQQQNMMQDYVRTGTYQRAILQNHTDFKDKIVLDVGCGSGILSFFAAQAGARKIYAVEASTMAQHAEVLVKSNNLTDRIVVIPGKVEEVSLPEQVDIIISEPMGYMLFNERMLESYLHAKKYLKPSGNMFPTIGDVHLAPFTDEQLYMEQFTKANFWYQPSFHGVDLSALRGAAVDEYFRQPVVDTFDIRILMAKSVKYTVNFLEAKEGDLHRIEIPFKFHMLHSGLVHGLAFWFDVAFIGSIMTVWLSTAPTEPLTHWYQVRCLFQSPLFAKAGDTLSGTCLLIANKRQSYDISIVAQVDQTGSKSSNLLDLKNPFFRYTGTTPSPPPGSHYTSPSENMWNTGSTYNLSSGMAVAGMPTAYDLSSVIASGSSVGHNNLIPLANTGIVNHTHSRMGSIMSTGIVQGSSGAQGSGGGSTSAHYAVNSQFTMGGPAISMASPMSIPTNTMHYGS

[3] = molecular target: Protein arginine N-methyltransferase 1 (Homo sapiens, UniProt Q99873); test: Inhibition of PRMT1 (unknown origin)
[4] = molecular target: T3, Protein arginine N-methyltransferase 8 (Homo sapiens, UniProt Q9NR22); test: Inhibition of PRMT8 (unknown origin)
Target sequence in this assay (Q9NR22 whole entry): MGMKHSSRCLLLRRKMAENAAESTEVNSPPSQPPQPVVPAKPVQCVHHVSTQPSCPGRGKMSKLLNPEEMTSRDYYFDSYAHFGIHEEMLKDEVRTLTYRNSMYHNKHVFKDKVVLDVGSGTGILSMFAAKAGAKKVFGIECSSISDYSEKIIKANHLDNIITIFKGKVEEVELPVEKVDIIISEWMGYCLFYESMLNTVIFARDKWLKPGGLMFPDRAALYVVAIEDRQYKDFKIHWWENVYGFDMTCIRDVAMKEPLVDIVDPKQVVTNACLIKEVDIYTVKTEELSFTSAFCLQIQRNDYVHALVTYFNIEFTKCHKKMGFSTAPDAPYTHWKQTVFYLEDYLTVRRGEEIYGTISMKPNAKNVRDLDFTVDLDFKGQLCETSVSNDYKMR

[5] = molecular target: T4, Protein arginine N-methyltransferase 6 (Homo sapiens, UniProt Q96LA8); test: Inhibition of PRMT6 (unknown origin)
Target sequence in this assay (Q96LA8 whole entry): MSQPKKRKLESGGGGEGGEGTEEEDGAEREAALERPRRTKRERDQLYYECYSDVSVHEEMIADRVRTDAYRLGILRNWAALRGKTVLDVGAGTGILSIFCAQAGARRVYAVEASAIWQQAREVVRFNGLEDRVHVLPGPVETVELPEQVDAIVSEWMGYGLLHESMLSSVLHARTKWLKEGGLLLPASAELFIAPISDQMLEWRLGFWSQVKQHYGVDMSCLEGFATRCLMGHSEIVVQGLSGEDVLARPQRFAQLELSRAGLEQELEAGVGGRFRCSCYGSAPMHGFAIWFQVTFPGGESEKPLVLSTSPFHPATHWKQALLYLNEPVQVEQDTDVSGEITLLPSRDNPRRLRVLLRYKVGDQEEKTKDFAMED

[6] = molecular target: T1, Protein arginine N-methyltransferase 3; test: Displacement of 3H-SAM from human PRMT3 at 50 uM in presence of substrate by SPA assay
Target sequence in this assay (O60678 2-531 limits assumed): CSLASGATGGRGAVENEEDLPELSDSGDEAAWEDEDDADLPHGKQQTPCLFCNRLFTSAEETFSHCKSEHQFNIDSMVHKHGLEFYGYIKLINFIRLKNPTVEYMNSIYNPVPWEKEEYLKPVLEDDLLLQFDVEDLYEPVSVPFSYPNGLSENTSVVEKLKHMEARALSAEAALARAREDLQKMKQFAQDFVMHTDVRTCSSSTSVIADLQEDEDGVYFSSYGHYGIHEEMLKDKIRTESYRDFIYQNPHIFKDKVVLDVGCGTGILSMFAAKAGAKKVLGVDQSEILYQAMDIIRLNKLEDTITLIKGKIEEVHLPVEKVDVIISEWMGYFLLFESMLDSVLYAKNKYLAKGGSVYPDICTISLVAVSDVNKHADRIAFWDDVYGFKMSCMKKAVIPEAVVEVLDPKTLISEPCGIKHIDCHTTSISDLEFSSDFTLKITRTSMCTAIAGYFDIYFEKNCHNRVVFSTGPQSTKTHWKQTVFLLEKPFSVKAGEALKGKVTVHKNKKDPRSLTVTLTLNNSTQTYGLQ

[7] = molecular target: T5, Histone-lysine N-methyltransferase SMYD3 (Homo sapiens) (UniProt Q9H7B4); test: Displacement of 3H-SAM from SMYD3 (unknown origin) using biotinylated-MAP3K2 as substrate at 30 uM incubated for 45 mins by SPA assay relative to control
T5 sequence (whole entry): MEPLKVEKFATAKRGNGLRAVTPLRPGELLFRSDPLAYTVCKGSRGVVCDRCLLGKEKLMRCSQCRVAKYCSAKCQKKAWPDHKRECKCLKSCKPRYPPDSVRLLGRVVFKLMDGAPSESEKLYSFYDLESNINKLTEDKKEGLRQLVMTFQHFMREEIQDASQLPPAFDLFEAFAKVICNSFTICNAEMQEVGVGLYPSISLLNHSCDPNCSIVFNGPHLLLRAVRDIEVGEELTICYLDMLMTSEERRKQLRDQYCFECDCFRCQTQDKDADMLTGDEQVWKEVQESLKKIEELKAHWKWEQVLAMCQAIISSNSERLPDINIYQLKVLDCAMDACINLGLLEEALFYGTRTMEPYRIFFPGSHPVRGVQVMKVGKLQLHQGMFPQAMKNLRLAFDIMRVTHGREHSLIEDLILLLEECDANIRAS

[8] = molecular target: T6, Histone-arginine methyltransferase CARM1 (Homo sapiens) (UniProt Q86X55); test: Displacement of 3H-SAM from human PRMT4 at 50 uM in presence of substrate by SPA assay
T6 sequence (whole entry): T2 sequence (Q86X55 whole entry)

[9] = molecular target: Histone-lysine N-methyltransferase, H3 lysine-79 specific (Homo sapiens) (UniProt Q8TEK3); test: Displacement of 3H-SAM from DOT1L (unknown origin) at 30 uM incubated for 1 hr in presence of substrate by SPA assay relative to control
[10] = molecular target: T3, Protein arginine N-methyltransferase 8; test: Displacement of 3H-SAM from human PRMT8 at 50 uM in presence of substrate by SPA assay
Target sequence in this assay (Q9NR22 2-394 limits assumed): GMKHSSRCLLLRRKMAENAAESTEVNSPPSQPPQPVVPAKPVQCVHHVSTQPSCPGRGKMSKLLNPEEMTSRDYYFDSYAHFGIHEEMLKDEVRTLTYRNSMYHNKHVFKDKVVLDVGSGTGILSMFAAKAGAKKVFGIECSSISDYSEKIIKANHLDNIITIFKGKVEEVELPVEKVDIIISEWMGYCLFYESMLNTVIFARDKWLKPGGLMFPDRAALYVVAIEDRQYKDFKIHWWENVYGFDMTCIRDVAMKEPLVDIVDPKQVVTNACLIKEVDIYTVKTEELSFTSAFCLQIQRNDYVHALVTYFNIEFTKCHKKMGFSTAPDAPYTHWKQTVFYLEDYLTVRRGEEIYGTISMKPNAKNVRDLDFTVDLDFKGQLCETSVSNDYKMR

[11] = molecular target: T4, Protein arginine N-methyltransferase 6; test: Displacement of 3H-SAM from human PRMT6 at 50 uM in presence of substrate by SPA assay
Target sequence in this assay (Q96LA8 whole entry, looked up): as the sequence (Q96LA8 whole entry) above

[12] = molecular target: Protein arginine N-methyltransferase 5 (Homo sapiens) (UniProt O14744); test: Displacement of 3H-SAM from human PRMT5 at 50 uM in presence of substrate by SPA assay
[13] = molecular target: T7, Histone-lysine N-methyltransferase SUV39H1 (Homo sapiens) (UniProt O43463); test: Displacement of 3H-SAM from SUV39H1 (unknown origin) using biotinylated-histone H3 peptide as substrate at 30 uM incubated for 45 mins by SPA assay relative to control
T7 sequence (whole entry): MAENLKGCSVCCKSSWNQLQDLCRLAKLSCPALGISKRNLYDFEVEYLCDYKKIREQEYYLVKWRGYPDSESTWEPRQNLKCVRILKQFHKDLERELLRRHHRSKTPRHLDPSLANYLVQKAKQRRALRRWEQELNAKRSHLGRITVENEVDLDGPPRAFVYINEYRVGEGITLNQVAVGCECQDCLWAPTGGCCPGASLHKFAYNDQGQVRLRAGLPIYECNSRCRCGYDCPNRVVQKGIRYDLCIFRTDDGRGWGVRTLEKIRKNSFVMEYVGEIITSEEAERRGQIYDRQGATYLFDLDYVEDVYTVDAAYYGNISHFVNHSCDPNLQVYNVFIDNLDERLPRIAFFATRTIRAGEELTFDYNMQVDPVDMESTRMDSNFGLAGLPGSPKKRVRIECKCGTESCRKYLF

[14] = molecular target: T8, Protein arginine N-methyltransferase 9 (Homo sapiens) (UniProt Q6P2P2); test: Displacement of 3H-SAM from human PRMT9 at 50 uM in presence of substrate by SPA assay
T8 sequence (whole entry): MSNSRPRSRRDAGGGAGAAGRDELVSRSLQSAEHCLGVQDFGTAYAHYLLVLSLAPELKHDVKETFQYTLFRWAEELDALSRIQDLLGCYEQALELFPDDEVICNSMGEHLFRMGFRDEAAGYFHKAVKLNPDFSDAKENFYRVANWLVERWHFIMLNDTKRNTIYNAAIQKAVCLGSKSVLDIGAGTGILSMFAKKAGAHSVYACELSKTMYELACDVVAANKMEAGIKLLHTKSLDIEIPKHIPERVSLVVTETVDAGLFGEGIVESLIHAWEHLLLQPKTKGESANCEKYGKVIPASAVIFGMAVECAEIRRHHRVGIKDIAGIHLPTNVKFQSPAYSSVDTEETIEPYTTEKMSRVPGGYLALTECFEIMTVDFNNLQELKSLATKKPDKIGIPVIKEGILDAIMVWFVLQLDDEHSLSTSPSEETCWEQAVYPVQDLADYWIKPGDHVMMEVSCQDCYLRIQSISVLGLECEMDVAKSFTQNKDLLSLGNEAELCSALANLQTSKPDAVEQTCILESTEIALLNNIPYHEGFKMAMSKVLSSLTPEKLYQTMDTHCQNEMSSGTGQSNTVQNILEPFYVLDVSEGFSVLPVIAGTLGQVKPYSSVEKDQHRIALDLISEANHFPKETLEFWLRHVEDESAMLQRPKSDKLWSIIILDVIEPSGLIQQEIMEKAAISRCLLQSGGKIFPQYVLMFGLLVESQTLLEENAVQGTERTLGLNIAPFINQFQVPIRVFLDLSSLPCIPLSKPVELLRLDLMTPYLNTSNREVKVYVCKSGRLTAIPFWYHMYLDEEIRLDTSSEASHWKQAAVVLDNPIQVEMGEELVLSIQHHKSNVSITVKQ

[15] = molecular target: T9, Protein arginine N-methyltransferase 7 (Homo sapiens) (UniProt Q9NVM4); test: Displacement of 3H-SAM from human PRMT7 at 50 uM in presence of substrate by SPA assay
T9 sequence (whole entry): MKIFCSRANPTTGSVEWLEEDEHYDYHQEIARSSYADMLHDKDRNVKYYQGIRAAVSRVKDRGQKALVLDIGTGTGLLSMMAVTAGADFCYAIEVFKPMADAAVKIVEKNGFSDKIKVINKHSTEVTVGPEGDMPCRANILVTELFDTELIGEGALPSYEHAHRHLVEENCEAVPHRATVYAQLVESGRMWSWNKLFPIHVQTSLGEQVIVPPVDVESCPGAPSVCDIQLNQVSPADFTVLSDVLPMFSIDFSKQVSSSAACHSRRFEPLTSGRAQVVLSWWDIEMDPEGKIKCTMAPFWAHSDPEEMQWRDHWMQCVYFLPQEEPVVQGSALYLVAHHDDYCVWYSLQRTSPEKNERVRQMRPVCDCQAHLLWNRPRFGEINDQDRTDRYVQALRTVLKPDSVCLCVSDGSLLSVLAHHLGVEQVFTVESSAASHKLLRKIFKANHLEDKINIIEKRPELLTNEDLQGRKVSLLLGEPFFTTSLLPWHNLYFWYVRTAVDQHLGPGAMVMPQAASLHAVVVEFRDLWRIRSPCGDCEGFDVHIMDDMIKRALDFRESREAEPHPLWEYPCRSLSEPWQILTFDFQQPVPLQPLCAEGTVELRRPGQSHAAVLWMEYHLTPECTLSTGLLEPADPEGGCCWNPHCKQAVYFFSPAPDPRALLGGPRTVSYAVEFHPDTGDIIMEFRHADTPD

Chain of Histone-lysine N-methyltransferase, H3 lysine-79 specific (Homo sapiens) (Q8TEK3 whole entry, looked up): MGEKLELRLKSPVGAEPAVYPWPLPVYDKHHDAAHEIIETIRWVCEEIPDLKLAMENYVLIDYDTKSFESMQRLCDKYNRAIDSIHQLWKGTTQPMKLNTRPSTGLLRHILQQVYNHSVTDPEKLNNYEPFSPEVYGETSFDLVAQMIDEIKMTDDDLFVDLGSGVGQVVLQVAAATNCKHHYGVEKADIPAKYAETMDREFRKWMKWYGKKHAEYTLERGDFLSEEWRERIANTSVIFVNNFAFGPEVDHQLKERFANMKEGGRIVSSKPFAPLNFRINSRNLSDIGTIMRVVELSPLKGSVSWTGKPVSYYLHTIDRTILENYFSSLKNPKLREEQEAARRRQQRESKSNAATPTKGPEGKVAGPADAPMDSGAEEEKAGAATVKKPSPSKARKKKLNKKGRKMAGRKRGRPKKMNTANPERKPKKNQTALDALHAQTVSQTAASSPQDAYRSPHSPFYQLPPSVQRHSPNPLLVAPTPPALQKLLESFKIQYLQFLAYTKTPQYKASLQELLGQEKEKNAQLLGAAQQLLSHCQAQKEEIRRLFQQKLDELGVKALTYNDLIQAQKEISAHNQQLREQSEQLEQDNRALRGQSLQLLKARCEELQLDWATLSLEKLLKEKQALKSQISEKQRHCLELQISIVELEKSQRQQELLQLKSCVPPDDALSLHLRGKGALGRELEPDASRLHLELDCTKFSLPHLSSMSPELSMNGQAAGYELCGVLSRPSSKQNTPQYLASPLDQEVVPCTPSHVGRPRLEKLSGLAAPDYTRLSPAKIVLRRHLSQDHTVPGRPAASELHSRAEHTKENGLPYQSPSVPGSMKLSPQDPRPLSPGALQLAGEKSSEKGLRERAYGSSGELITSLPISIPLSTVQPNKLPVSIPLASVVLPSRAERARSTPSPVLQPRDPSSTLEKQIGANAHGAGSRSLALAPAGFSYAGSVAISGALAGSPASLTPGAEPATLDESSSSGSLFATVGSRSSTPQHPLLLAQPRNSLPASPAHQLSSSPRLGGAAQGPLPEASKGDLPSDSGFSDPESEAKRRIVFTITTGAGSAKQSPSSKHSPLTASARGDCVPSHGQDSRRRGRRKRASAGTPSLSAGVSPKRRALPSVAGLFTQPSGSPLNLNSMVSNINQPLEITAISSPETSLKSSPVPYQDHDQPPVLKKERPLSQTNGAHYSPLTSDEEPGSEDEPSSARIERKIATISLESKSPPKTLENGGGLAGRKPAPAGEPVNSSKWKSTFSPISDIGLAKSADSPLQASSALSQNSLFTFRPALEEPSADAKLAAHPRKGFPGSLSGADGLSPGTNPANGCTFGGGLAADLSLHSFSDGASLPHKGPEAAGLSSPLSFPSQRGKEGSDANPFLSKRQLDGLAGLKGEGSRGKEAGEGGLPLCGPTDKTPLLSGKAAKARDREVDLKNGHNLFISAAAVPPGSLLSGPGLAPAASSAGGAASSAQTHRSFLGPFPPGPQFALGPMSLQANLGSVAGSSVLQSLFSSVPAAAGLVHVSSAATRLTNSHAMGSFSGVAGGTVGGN
Chain of Protein arginine N-methyltransferase 5 (Homo sapiens) (O14744 whole entry): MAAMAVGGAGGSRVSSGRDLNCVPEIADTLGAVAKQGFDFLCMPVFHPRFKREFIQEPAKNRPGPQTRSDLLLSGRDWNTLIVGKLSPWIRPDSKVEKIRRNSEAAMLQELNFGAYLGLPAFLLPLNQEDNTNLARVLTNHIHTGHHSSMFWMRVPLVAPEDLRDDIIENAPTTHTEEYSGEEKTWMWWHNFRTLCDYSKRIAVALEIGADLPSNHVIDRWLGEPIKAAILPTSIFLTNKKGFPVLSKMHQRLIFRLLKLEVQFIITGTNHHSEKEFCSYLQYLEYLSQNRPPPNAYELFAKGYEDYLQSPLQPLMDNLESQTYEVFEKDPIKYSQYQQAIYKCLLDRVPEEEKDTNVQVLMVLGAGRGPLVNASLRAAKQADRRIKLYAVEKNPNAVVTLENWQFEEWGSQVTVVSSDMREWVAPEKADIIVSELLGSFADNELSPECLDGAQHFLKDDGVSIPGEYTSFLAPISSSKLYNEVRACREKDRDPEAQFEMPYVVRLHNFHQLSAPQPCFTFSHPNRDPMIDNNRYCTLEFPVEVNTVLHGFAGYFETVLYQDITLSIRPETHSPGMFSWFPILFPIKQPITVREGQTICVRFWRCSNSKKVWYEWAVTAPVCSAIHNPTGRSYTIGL
Chain of Protein arginine N-methyltransferase 1 (Q99873 whole entry): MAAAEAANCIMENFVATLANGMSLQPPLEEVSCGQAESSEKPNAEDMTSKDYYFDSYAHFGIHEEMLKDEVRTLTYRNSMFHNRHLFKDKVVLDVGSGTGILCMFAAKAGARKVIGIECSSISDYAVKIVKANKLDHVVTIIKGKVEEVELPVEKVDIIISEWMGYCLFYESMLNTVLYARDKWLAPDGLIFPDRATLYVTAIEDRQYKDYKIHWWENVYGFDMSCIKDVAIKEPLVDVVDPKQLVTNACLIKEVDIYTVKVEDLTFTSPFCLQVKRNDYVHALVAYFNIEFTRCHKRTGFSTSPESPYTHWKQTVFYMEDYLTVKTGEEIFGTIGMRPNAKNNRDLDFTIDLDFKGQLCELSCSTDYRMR

In the case of `CC(C)Oc1ccc(-c2c[nH]cc2CNCCN)cc1`, the IC50 [1] is reported as 0.119 µM, the IC50 [2] is reported as 0.083 µM and the IC50 [3] is reported as 0.03 µM. It also gave an IC50 [4] of 0.005 µM and an IC50 [5] of 0.004 µM.
For `CN(C)CCCNC(=O)c1ccc2c(Nc3ccc(CN)cc3)ncnc2c1`, the inhibition [6] was “Active”, the inhibition [7] was < 25% and the inhibition [8] was “Active”. For the same molecule, the inhibition [9] was 0%, the inhibition [10] was “Active” and the inhibition [11] was “Active”. The inhibition [12] was “Active”, the inhibition [13] was < 25% and the inhibition [14] was “Active”. For the same molecule, the inhibition [15] was “Active”.
